The nature of series [1]: In vitro cytotoxicity assay (MTT cell viability) in HepG2 cells. The class given is cell-based, human. Conditions: human. As for the experimental part:
To evaluate antiviral selectivity, the cytotoxic activity of each compound was determined using a standard cell viability assay performed on the parental HepG2 cell line. Cell viability was determined by measuring the conversion of 3-(4,5-dimethylthiazol-2-yl)-2,5-diphenyltetrazolium bromide (MTT) to the insoluble formazan salt crystal that occurs in live cells. Briefly, HepG2 cells were seeded in 96-well plates at a density of 20,000 cells per well in […] (complete growth medium) and allowed to adhere overnight in a 37° C., […] humidified incubator. The next day, test agents were prepared by performing 8 half-log10 serial dilutions in 100% DMSO at 200× the final desired concentration in the assay. Compounds were tested over a range of concentrations from 30 μM to 1.0 nM in the assay. HepG2 cells were incubated in the presence of various concentrations of CAMs for 7 days in a 37° C., […] humidified incubator. At the completion of the 7-day incubation period, MTT reagent was added to each well and the mixture was incubated for an additional 3-4 hours. At the completion of the incubation period, all wells were aspirated to remove the culture medium. The formazan crystals were solubilized from the cell monolayers with 100% DMSO. Plates were briefly mixed on an orbital shaker and absorbance was measured at 492 nm using a Perkin-Elmer EnVision multi-label plate reader. All absorbance values were converted to a percentage of the signal obtained from the vehicle treated controls. Absorbance values at 492 nm are directly proportional to the number of viable cells present in the sample. A CC50 value (cytotoxic concentration that results in loss of 50% cell viability) was calculated from the dose-response curve by 4-parameter, non-linear regression analysis using the GraphPad Prism software. The positive control compound, staurosporine, reduced the viability of HepG2 cells in a dose-dependent manner (CC50=100 nM).

The subject of another series is HBV. The experiment in a line: In vitro antiviral assay: anti-HBV replication in HepAD38 cells (extracellular HBV DNA by QPCR). It counts as cell-based, hepatitis B virus (genotype D, serotype ayw). Conditions: Hepatitis B virus, HePAD38, 168 h, 7 days incubation, extracellular HBV DNA by QPCR, read-out: Anti-HBV EC50. Here is the method:
The anti-HBV activity of the Capsid Assembly Modulators (CAMs) was evaluated in a cell based assay utilizing the human hepatoma cell line HepAD38 (Ladner, S K., et al., 1998). HepAD38 cells were derived from the parental line, HepG2, that were stably transfected with a construct containing an HBV genome (genotype D, serotype ayw) under the control of a tetracycline repressible CMV promoter. Upon removal of tetracycline, viral pre-genomic RNA (pgRNA) and mRNAs are expressed and infectious viral particles are assembled and secreted into the culture medium providing a reliable, robust system to measure multiple steps of the HBV life cycle. Disruption of capsid formation results in reduced levels of DNA-containing virus particles that are released into the culture supernatant. To quantify the effect of CAMs on HBV replication, we developed a sensitive QPCR-based assay that measures extracellular HBV DNA levels upon treatment of HepAD38 cells with various concentrations of test compounds.
HepAD38 cells were maintained in DMEM/F12 medium containing 10% FBS, 400 μg/mL G418 and 0.3 μg/mL tetracycline (tet+ media) to maintain repression of HBV replication. To evaluate each compound, HepAD38 cells were seeded into 24-well collagen coated culture plates (Corning BioCoat) at a density of 200,000 cells per well in 1 mL of medium without tetracycline (tet-media) and allowed to adhere overnight at 37° C., 5% CO2 in a humidified incubator. The following day, media was refreshed and a dose range of each compound was prepared by performing 1 log10 serial dilutions in 100% DMSO at 200× the desired assay concentration. Dilutions were then added to the cells resulting in a final dose range of 1 μM to 10 pM and the plates were returned to the incubator. Following 7 days of incubation, culture supernatants were harvested and HBV DNA levels were evaluated by QPCR and compared to the vehicle treated control wells (i.e. DMSO alone).
To quantify HBV DNA levels, cell culture supernatants were diluted 1:10 in sterile, nuclease-free water (Gibco). The diluted supernatants were subsequently added to a PCR master mix containing 1× Roche Light Cycler Master Mix, 0.5 μM forward primer, 0.5 μM reverse primer (Fwd: 5′-[…] (SEQ ID NO 1); Rev: 5′-[…] (SEQ ID NO 2)), 0.2 μM Roche Universal Probe Library Probe 25. The volume was brought to 20 μL with nuclease-free water and amplification of the HBV target sequence was performed using a Roche LightCycler 480 QPCR instrument. PCR extended out to 45 cycles with each cycle consisting of a denaturation step at 95° C. for 10 sec., followed by an annealing step at 60° C. for 10 sec. and a brief extension step at 72° C. for 1 sec.
Extracellular HBV DNA levels, expressed in copies/mL, were determined by comparison to a standard curve (10^2-10^9 copies/mL) using the Roche LightCycler analysis software. These values were subsequently converted to percent inhibition of HBV replication by dividing the HBV DNA levels in the experimental samples with those obtained from the vehicle control (˜1-2×10^5 copies/mL). Potency, expressed as an EC50 (the effective concentration required to inhibit 50% of HBV replication), was calculated from the dose-response curve using a 4-parameter non-linear regression analysis (GraphPad Prism). The nucleoside analog inhibitor entecavir was used as a positive control to validate each assay run. The EC50 value of entecavir in the HepAD38 assay was 0.5 nM, as previously reported in the literature.

Each structure is given as a SMILES string.

Compound `Cc1cc(NC(=O)c2c(C)c(C(=O)C(=O)NCC(C)(C)O)n(C)c2-c2ccsc2)ccc1F` [Example 185, N-(4-fluoro-3-methylphenyl)-5-(2-((2-hydroxy-2-methylpropyl)amino)-2-oxoacetyl)-1,4-dimethyl-2-(thiophen-3-yl)-1H-pyrrole-3-carboxamide] returned a CC50 at 7 days in series [1] of 5 to 30 µM. Also, the EC50 in the series on HBV lay in the range of 0.5 to 1 µM.
The corresponding values for `Cc1cc(NC(=O)c2c(C3CC3)c(C(=O)C(=O)N[C@H]3CC[C@@H](S(C)(=O)=O)CC3)n(C)c2C)ccc1F` [Example 100, 4-cyclopropyl-N-(4-fluoro-3-methylphenyl)-1,2-dimethyl-5-(2-(((1s,4s)-4-(methylsulfonyl)cyclohexyl)amino)-2-oxoacetyl)-1H-pyrrole-3-carboxamide] are greater than 30 µM and less than 0.05 µM.
The compound `Cc1c(C(=O)Nc2ccc(F)c(C3CC3)c2)c(C)n(C)c1C(=O)C(=O)NC(C)(C)C` [Example 138, 5-(2-(tert-butylamino)-2-oxoacetyl)-N-(3-cyclopropyl-4-fluorophenyl)-1,2,4-trimethyl-1H-pyrrole-3-carboxamide] came in with a CC50 at 7 days in series [1] greater than 30 µM. For the same compound, the concentration for a half-maximal effect (EC50) in the series on HBV is less than 0.05 µM.
The matching figures for `Cc1cc(NC(=O)c2c(C)c(C(=O)C(=O)N[C@]3(C4CC4)CC[C@H](O)CC3)n(C)c2C)ccc1F` [Example 6, 5-(2-(((1s,4s)-1-cyclopropyl-4-hydroxycyclohexyl)amino)-2-oxoacetyl)-N-(4-fluoro-3-methylphenyl)-1,2,4-trimethyl-1H-pyrrole-3-carboxamide]: greater than 30 µM and less than 0.05 µM.
The corresponding values for `Cc1cc(NC(=O)c2c(C)c(C(=O)C(=O)N[C@]3(C)CC[C@H](O)CC3)n(C)c2-c2nccs2)ccc1F` [Example 176, N-(4-fluoro-3-methylphenyl)-5-(2-(((1s,4s)-4-hydroxy-1-methylcyclohexyl)amino)-2-oxoacetyl)-1,4-dimethyl-2-(thiazol-2-yl)-1H-pyrrole-3-carboxamide] are greater than 30 µM and 0.05 to 0.499 µM.
The corresponding values for `CCc1c(C(=O)Nc2ccc(F)c(C)c2)c(C)c(C(=O)C(=O)NCC(C)(C)O)n1C` [Example 105, 2-ethyl-N-(4-fluoro-3-methylphenyl)-5-(2-((2-hydroxy-2-methylpropyl)amino)-2-oxoacetyl)-1,4-dimethyl-1H-pyrrole-3-carboxamide] are greater than 30 µM and less than 0.05 µM.
Compound `Cc1noc(C2(NC(=O)c3c(C)c(C(=O)C(=O)Nc4cccnc4)n(C)c3C)CC2)n1` [Example 30, 1,2,4-trimethyl-N-(1-(3-methyl-1,2,4-oxadiazol-5-yl)cyclopropyl)-5-(2-oxo-2-(pyridin-3-ylamino)acetyl)-1H-pyrrole-3-carboxamide] had a CC50 at 7 days in series [1] greater than 30 µM. Moreover, the EC50 in the series on HBV is greater than 1 µM.
The compound `Cc1cc(NC(=O)c2c(C)c(C(=O)C(=O)N[C@H]3CC[C@@H](OCC(=O)NCCOCCOCCOCCOCCOCCOCCOCCNC(=O)CCCCC4SCC5NC(=O)NC54)CC3)n(C)c2C)ccc1F` (stereo partly drawn) [Example 121, 5-(2-(((1s,4s)-4-((2,28-dioxo-32-(2-oxohexahydro-1H-thieno[3,4-d]imidazol-4-yl)-6,9,12,15,18,21,24-heptaoxa-3,27-diazadotriacontyl)oxy)cyclohexyl)amino)-2-oxoacetyl)-N-(4-fluoro-3-methylphenyl)-1,2,4-trimethyl-1H-pyrrole-3-carboxamide] displayed a CC50 at 7 days in series [1] greater than 30 µM. Also, in the series with HBV, the EC50 is greater than 1 µM.
The matching figures for `Cc1cc(NC(=O)c2c(C3CC3)c(C(=O)C(=O)N[C@H]3CC[C@@H](O)CC3)n(C)c2C)ccc1F` [Example 97, 4-cyclopropyl-N-(4-fluoro-3-methylphenyl)-5-(2-(((1s,4s)-4-hydroxycyclohexyl)amino)-2-oxoacetyl)-1,2-dimethyl-1H-pyrrole-3-carboxamide]: greater than 30 µM and 0.5 to 1 µM.
The corresponding values for `Cc1cc(NC(=O)c2c(C)c(C(=O)C(=O)N[C@@H]3CC[C@@H](O)C[C@@H]3F)n(C)c2C)ccc1F` [Example 14, N-(4-fluoro-3-methylphenyl)-5-(2-(((1R,2S,4R)-2-fluoro-4-hydroxycyclohexyl)amino)-2-oxoacetyl)-1,2,4-trimethyl-1H-pyrrole-3-carboxamide] are greater than 30 µM and less than 0.05 µM.
In series [1], `Cc1cc(NC(=O)c2c(C3CC3)c(C(=O)C(=O)N[C@]3(C)C[C@H](O)C3)n(C)c2C)ccc1F` [Example 98, 4-cyclopropyl-N-(4-fluoro-3-methylphenyl)-5-(2-(((1s,3s)-3-hydroxy-1-methylcyclobutyl)amino)-2-oxoacetyl)-1,2-dimethyl-1H-pyrrole-3-carboxamide] gave a CC50 at 7 days greater than 30 µM. In the series with HBV, the concentration giving a half-maximal response (EC50) fell in the range of 0.05 to 0.499 µM.
The corresponding values for `Cc1cc(NC(=O)c2c(C)c(C(=O)C(=O)N[C@]3(C)C[C@H](O)C3)n(C)c2C2CC2)ccc1F` [Example 128, 2-cyclopropyl-N-(4-fluoro-3-methylphenyl)-5-(2-(((1s,3s)-3-hydroxy-1-methylcyclobutyl)amino)-2-oxoacetyl)-1,4-dimethyl-1H-pyrrole-3-carboxamide] are greater than 30 µM and less than 0.05 µM.
The matching figures for `Cc1cc(NC(=O)c2c(C(C)C)c(C(=O)C(=O)N[C@H](C)C(F)(F)F)n(C)c2C)ccc1F` [Example 96, (R)-N-(4-fluoro-3-methylphenyl)-4-isopropyl-1,2-dimethyl-5-(2-oxo-2-((1,1,1-trifluoropropan-2-yl)amino)acetyl)-1H-pyrrole-3-carboxamide]: greater than 30 µM and greater than 1 µM.
Take `COC(=O)c1cc(NC(=O)c2c(C)c(C(=O)C(=O)NC(C)(C)C)n(C)c2C)ccc1F` [Example 55, methyl 5-(5-(2-(tert-butylamino)-2-oxoacetyl)-1,2,4-trimethyl-1H-pyrrole-3-carboxamido)-2-fluorobenzoate]: in series [1], the CC50 at 7 days was greater than 30 µM. Moreover, the EC50 in the series on HBV is greater than 1 µM.
In the case of `CC[C@]1(NC(=O)C(=O)c2c(C)c(C(=O)Nc3ccc(F)c(C)c3)c(C)n2C)CC[C@@H](O)CC1` [Example 5, 5-(2-(((1s,4s)-1-ethyl-4-hydroxycyclohexyl)amino)-2-oxoacetyl)-N-(4-fluoro-3-methylphenyl)-1,2,4-trimethyl-1H-pyrrole-3-carboxamide], the CC50 at 7 days in series [1] was greater than 30 µM. In addition, the EC50 with HBV is less than 0.05 µM.

Usually CC50 stands for the concentration at which the toxic effect on the cells reaches its halfway point. A high value points to better tolerance by the cells. The EC50 is the concentration that produces a half-maximal response.
